Reference: patent EP0193355B1, “Analgesic composition” (ELI LILLY AND COMPANY, priority 1985, dated 1986)
Structures can show the parent of a compound that is named as a salt.

Tested on: Mouse Writhing
Experiment: mouse writhing assay (acetic acid-induced writhing)
Type: in vivo, albino male mice
Details: for Percent Inhibition of Writhing: Codeine Sulfate 10 mg/kg + Saline, oral; for Codeine Sulfate Induced Inhibition of Mouse Writhing ED₅₀: codeine sulfate subcutaneous, writhing assessed 30 minutes later
Source text: Writhing, which is characterized by contraction of the abdominal musculature, extension of the hindlegs, and rotation of the trunk, was induced in albino male mice. The extent to which writhing is reduced following administration of a test compound is an indication of the analgesic activity of that compound.
Mice, weighing 18-24 grams, were fasted overnight and given the test compounds by gavage or subcutaneously. Writhing was then induced by the intraperitoneal administration of acetic acid (0.55 to 0.60 percent). Each treatment group consisted of five mice. The total number of writhes for the treatment group was determined during a 10-minute observation period starting five minutes after acetic acid administration. […] The results in the mouse writhing assay are presented either as the effective dose in mg/kg of the respective test compound required to inhibit induced writhing in the test animals by fifty percent (ED₅₀), or as the percent inhibition of writhing at the particular dose of the test compound administered.

Structure (SMILES) | Percent Inhibition of Writhing (30 minutes after administration) [%] | Percent Inhibition of Writhing (60 minutes after administration) [%] | Percent Inhibition of Writhing (120 minutes after administration) [%] | Percent Inhibition of Writhing (180 minutes after administration) [%] | Percent Inhibition of Writhing (240 minutes after administration) [%] | Percent Inhibition of Mouse Writhing (Codeine Sulfate 10 mg/kg oral, Fluoxetine Hydrochloride 0 mg/kg, writhing assessed 60 minutes later) | inhibition at 10 mg/kg (Mus musculus, 1 h, Codeine Sulfate 10 mg/kg oral, Fluoxetine Hydrochloride 0 mg/kg, writhing assessed 60 minutes later, read-out: Percent Inhibition of Mouse Writhing) [%] | Codeine Sulfate Inhibition of Mouse Writhing ED₅₀ (codeine sulfate oral, alone (Fluoxetine Hydrochloride 0), writhing assessed 60 minutes later) [mg/kg] | Codeine Sulfate Inhibition of Mouse Writhing ED₅₀ (codeine sulfate oral, simultaneously with Fluoxetine Hydrochloride 20 mg/kg oral, writhing assessed 60 minutes later) [mg/kg] | Codeine Sulfate Induced Inhibition of Mouse Writhing ED₅₀ (alone (Fluoxetine Hydrochloride 0 mg/kg s.c.)) [mg/kg] | Codeine Sulfate Induced Inhibition of Mouse Writhing ED₅₀ (simultaneously with Fluoxetine Hydrochloride 20 mg/kg s.c.) [mg/kg] | Codeine Sulfate Inhibition of Mouse Writhing ED₅₀ (pretreatment Fluoxetine Hydrochloride (20 mg/kg) oral three hours before, codeine sulfate oral 15 minutes prior to assessment of writhing) [mg/kg] | Codeine Sulfate Inhibition of Mouse Writhing ED₅₀ (pretreatment Saline oral three hours before, codeine sulfate oral 15 minutes prior to assessment of writhing) [mg/kg] | ED₅₀ of codeine sulfate alone relative to the amount needed when 20 mg/kg of fluoxetine hydrochloride was concomitantly administered (subcutaneous, 30 minutes prior to the assessment of mouse writhing) [times] | analgesic activity (fluoxetine hydrochloride alone, doses up to 160 mg/kg, 30-180 minutes before writhing was induced)
COc1ccc2c3c1O[C@H]1[C@@H](O)C=C[C@H]4[C@@H](C2)N(C)CC[C@@]341 [Codeine Sulfate, codeine sulfate] | 40 | 38 | 37 | 35 | 22 | no inhibition | 0 | 27.0 | 15.4 | 9.8 | 2.8 | 9.4 | 18.6 | 3.5 | –
CNCCC(Oc1ccc(C(F)(F)F)cc1)c1ccccc1 (stereo not drawn) [fluoxetine hydrochloride, 3-(4-trifluoromethylphenoxy)-N-methyl-3-phenylpropylamine] | – | – | – | – | – | – | – | – | – | – | – | – | – | – | devoid of analgesic activity
